Laboratory results from PMC6199744, “Development of Chemical Proteomics for the Folateome and Analysis of the Kinetoplastid Folateome” (ACS Infectious Diseases, 2018).
“And” between values parts separate entries of the source, which are not always exact repeats. Equal entries are not always repeated. Where two headings read alike, the source gives them in different places.

Test system: L. major lysate proteins
Test: Multitargeted bead mixture chemoproteomics, single concentration competition, proteome-wide
Type: binding
Details: for fold change / fold change relative to vehicle control: vehicle control = 1; for fold change relative to vehicle control: competition with free ligand

CCCCCCOc1ccc(Cc2cnc(N)nc2N)cc1 [compound 1]
fold change vs vehicle control: 0.96 and 1.16 and 1.02 and 0.84 | fold change (LINJ.05.0500 ATPASE ALPHA SUBUNIT): 1.04 | fold change (LINJ.36.4570 PROTEASOME REGULATORY ATPASE SUBUNIT): 0.72 | fold change (LMJF.10.0510 GLYCEROL-3-PHOSPHATE DEHYDROGENASE NAD ], GLYCOSOMAL): 0.92 | fold change (LMJF.16.1610 PROHIBITIN): 1.18 | fold change (LMJF.18.1370 HEAT SHOCK PROTEIN, PUTATIVE): 0.95 | fold change (LMJF.19.0300 RNA BINDING PROTEIN, PUTATIVE): 0.89 | fold change (LMJF.21.0760 […]-ATP-ASE SUBUNIT 5, PUTATIVE): 0.7 | fold change (LMJF.22.0410 HYPOTHETICAL PROTEIN, CONSERVED): 0.84 | fold change (LMJF.25.1770 ENOYL-COA REDUCTASE, PUTATIVE): 0.98 | fold change (LMJF.26.0300 AMINOPEPTIDASE-LIKE PROTEIN): 0.77 | fold change (LMJF.26.2560 HYPOTHETICAL PROTEIN, CONSERVED): 0.82 | fold change (LMJF.27.1810 GLYCOSOMAL PHOSPHOENOLPYRUVATE CARBOXYKINASE, PUTATIVE): 1.05 | fold change (LMJF.28.0490 PROPIONYL-COA CARBOXYLASE BETA CHAIN, PUTATIVE): 0.7 | fold change (LMJF.29.0940 HY[…], CONSERVED): 1.06 | fold change (LMJF.29.1310 CARNITINE/CHOLINE ACETYLTRANSFERASE, PUTATIVE): 0.99 | fold change (LMJF.29.1470 HYPOTHETICAL PROTEIN, CONSERVED): 0.73 | fold change (LMJF.29.2440 HYPOTHETICAL PROTEIN, CONSERVED): 0.88 | fold change (LMJF.30.2350 SPHINGOSINE 1-PHOSPHATE LYASE): 1.13 | fold change (LMJF.30.2970 GLYCERALDEHYDE 3-PHOSPHATE DEHYDROGENASE, GLYCOSOMAL): 1.09 | fold change (LMJF.30.3390 CAS/CSE/IMPORTIN DOMAIN PROTEIN, PUTATIVE): 0.85 | fold change (LMJF.31.2650 ACETOIN DEHYDROGENASE E3 COMPONENT-LIKE PROTEIN): 0.92 | fold change (LMJF.31.2970 ACETYL-COA CARBOXYLASE, PUTATIVE): 0.96 | fold change (LMJF.33.1030 HYPOTHETICAL PROTEIN, CONSERVED): 0.85 | fold change (LMJF.33.1930 PHOSPHORIBOSYLPYROPHOSPHATE SYNTHETASE, PUTATIVE): 0.91 | fold change (LMJF.35.5040 polyadenylate-binding protein 1): 0.93 | fold change (LMJF.35.5250 ALPHA-1,2-MANNOSYLTRANSFERASE, PUTATIVE): 0.88 | fold change (LMJF.36.5100 HYPOTHETICAL PROTEIN, CONSERVED): 0.89 | fold change (LMJF.[…] RIBOSOMAL PROTEIN S7, PUTATIVE): 1.43 | fold change vs vehicle control (protein LINJ.03.0940 HY[…], CONSERVED): 1.24 | fold change vs vehicle control (protein LINJ.09.0030 HYPOTHETICAL PROTEIN, CONSERVED): 0.98 | fold change relative to vehicle control (protein LINJ.11.0780 40S RIBOSOMAL PROTEIN S21, PUTATIVE): 1.29 | fold change (protein LINJ.13.0990 PROTEASOME REGULATORY ATPASE SUBUNIT 2, PUTATIVE): 0.79 | fold change vs vehicle control (protein LINJ.13.1460 ALPHA TUBULIN): 1 | fold change (protein LINJ.15.0090 HEAT SHOCK PROTEIN HSLVU, ATPASE SUBUNIT HSLU, PUTATIVE): 0.97 | fold change relative to vehicle control (protein LINJ.16.1380 […], PUTATIVE): 1.55 | fold change vs vehicle control (protein LINJ.19.0300 RNA BINDING PROTEIN): 1.16 | fold change relative to vehicle control (protein LINJ.20.1390 COATOMER BETA SUBUNIT, PUTATIVE): 1.01 | fold change vs vehicle control (protein LINJ.21.1310 40S RIBOSOMAL PROTEIN S23, PUTATIVE): 1.08 | fold change vs vehicle control (protein LINJ.23.1680 HYPOTHETICAL PROTEIN, CONSERVED): 0.98 | fold change vs vehicle control (protein LINJ.25.1170 […] OXIDASE VII, PUTATIVE): 1.03 | fold change relative to vehicle control (protein LINJ.25.1220 RIBOSOMAL PROTEIN S25): 1.36 | fold change vs vehicle control (protein LINJ.26.1080 HY[…], CONSERVED): 1.09 | fold change vs vehicle control (protein LINJ.27.1140 HYPOTHETICAL PROTEIN, CONSERVED): 0.97 | fold change vs vehicle control (protein LINJ.28.1100 RIBOSOMAL PROTEIN S20, PUTATIVE): 1 | fold change relative to vehicle control (protein LINJ.28.1940 REPLICATION FACTOR A, 51KDA SUBUNIT, PUTATIVE): 1.2 | fold change (protein LINJ.31.2350 ADP-RI[…], PUTATIVE): 1.13 | fold change vs vehicle control (protein LINJ.34.0670 PROTEASOME REGULATORY NON-ATP-ASE SUBUNIT 11, PUTATIVE): 0.97 | fold change (protein LINJ.35.0410 40S RIBOSOMAL PROTEIN S3A, PUTATIVE): 1.07 | fold change relative to vehicle control (protein LINJ.35.0780 CBS DOMAIN PROTEIN, CONSERVED): 1.21 | fold change vs vehicle control (protein LINJ.36.0510 HY[…], CONSERVED): 1.03 | fold change vs vehicle control (protein LINJ.36.3940 40S RIBOSOMAL PROTEIN S27-1, PUTATIVE): 0.91 | fold change (protein LINJ.36.4180 HS1VU COMPLEX PROTEOLYTIC SUBUNIT-LIKE): 0.81 | fold change (protein LINJ.36.7350 CYTOCHROME C OXIDASE SUBUNIT I): 0.96 | fold change (protein LMJF.01.0520 LONG-CHAIN-FATTY-ACID-COA LIGASE, PUTATIVE): 0.59 | fold change vs vehicle control (protein LMJF.02.0460 HYPOTHETICAL PROTEIN, CONSERVED): 0.96 | fold change vs vehicle control (protein LMJF.03.0230 LONG CHAIN FATTY ACYL COA SYNTHETASE, PUTATIVE): 1.11 | fold change vs vehicle control (protein LMJF.03.0630 HYPOTHETICAL PROTEIN, CONSERVED): 0.95 | fold change (protein LMJF.05.0780 HY[…], CONSERVED): 1.17 | fold change (protein LMJF.06.0010 HISTONE H4): 1.14 | fold change (protein LMJF.06.0140 PROTEASOME BETA 6 SUBUNIT, PUTATIVE): 0.8 | fold change (protein LMJF.06.0650 LANOSTEROL SYNTHASE, PUTATIVE): 0.88 | fold change vs vehicle control (protein LMJF.08.0510 RIBOSE-PHOSPHATE PYROPHOSPHOKINASE, PUTATIVE): 1.04 | fold change vs vehicle control (protein LMJF.08.0550 TRANSLATION INITIATION FACTOR-LIKE PROTEIN): 1.1 | fold change vs vehicle control (protein LMJF.08.1100 HY[…], CONSERVED): 1.01 | fold change relative to vehicle control (protein LMJF.09.1120 MIT[…] BINDING PROTEIN 2,MRP2, GBP25): 1.17 | fold change vs vehicle control (protein LMJF.09.1260 HY[…], CONSERVED): 1.16 | fold change (protein LMJF.10.1010 NUCLEOSIDE PHOSPHORYLASE-LIKE PROTEIN): 0.72 | fold change (protein LMJF.10.1240 HYPOTHETICAL PROTEIN, CONSERVED): 0.8 | fold change vs vehicle control (protein LMJF.11.0130 NGG1 I[…] 3-LIKE PROTEIN): 0.99 | fold change vs vehicle control (protein LMJF.11.0240 […] 7 SUBUNIT, PUTATIVE): 1.03 | fold change (protein LMJF.11.1050 PRETRA[…], ALPHA SUBUNIT, PUTATIVE): 1.11 | fold change vs vehicle control (protein LMJF.11.1110 60S RIBOSOMAL PROTEIN L28, PUTATIVE): 1.29 | fold change vs vehicle control (protein LMJF.12.0210 […] […]1L8 3, PUTATIVE): 1.04 | fold change vs vehicle control (protein LMJF.12.0280 ORNITHINE DECARBOXYLASE, PUTATIVE): 0.98 | fold change vs vehicle control (protein LMJF.13.0450 HYPOTHETICAL PROTEIN, CONSERVED): 0.99 | fold change vs vehicle control (protein LMJF.13.0870 MITOCHONDRIAL PROCESSING PEPTIDASE ALPHA SUBUNIT, PUTATIVE): 0.94 | fold change vs vehicle control (protein LMJF.14.0130 INOSINE-GUANINE NUCLEOSIDE HYDROLASE, PUTATIVE): 0.91 | fold change (protein LMJF.14.0310 […] 3 SUBUNIT, PUTATIVE): 1.01 | fold change (protein LMJF.14.0650 FATTY ACID ELONGASE, PUTATIVE): 0.96 | fold change (protein LMJF.14.0660 FATTY ACID ELONGASE, PUTATIVE): 1.11 | fold change (protein LMJF.14.0705 FATTY ACID ELONGASE, PUTATIVE): 1.02 | fold change (protein LMJF.14.0740 FATTY ACID ELONGASE, PUTATIVE): 1.2 | fold change relative to vehicle control (protein LMJF.14.1120 KINESIN K39, PUTATIVE): 1.45 | fold change vs vehicle control (protein LMJF.15.0230 LYSYL-TRNA SYNTHETASE, PUTATIVE): 1.07 | fold change vs vehicle control (protein LMJF.15.0280 RIBONUCLEOPROTEIN P18, MIT[…], PUTATIVE): 1.04 | fold change (protein LMJF.15.1010 GLUTAMATE DEHYDROGENASE): 1.09 | fold change relative to vehicle control (protein LMJF.16.0520 HYPOTHETICAL PROTEIN, CONSERVED): 2.54 | fold change (protein LMJF.16.0540 ASPARTATE CARBAMOYLTRANSFERASE, PUTATIVE): 0.89 | fold change vs vehicle control (protein LMJF.16.0950 SUCROSE-PHOSPHATE SYNTHASE-LIKE PROTEIN): 0.99 | fold change vs vehicle control (protein LMJF.16.0960 HYPOTHETICAL PROTEIN, CONSERVED): 0.44 | fold change (protein LMJF.16.1180 COATOMER DELTA SUBUNIT-LIKE PROTEIN): 0.87 | fold change (protein LMJF.17.0010 HYPOTHETICAL PROTEIN, CONSERVED): 0.88 | fold change vs vehicle control (protein LMJF.18.0510 ACONITASE, PUTATIVE): 0.98 | fold change vs vehicle control (protein LMJF.18.0890 RAB7 GTP BINDING PROTEIN, PUTATIVE): 0.94 | fold change (protein LMJF.18.1130 RAS-RELATED PROTEIN RAB-5, PUTATIVE): 0.85 | fold change (protein LMJF.19.1120 PROTEASOME REGULATORY NON-ATP-ASE SUBUNIT, PUTATIVE): 0.9 | fold change vs vehicle control (protein LMJF.19.1160 HYPOTHETICAL PROTEIN, CONSERVED): 0.83 | fold change vs vehicle control (protein LMJF.19.1530 PEPTIDYLPROLYL ISOMERASE-LIKE PROTEIN): 0.94 | fold change (protein LMJF.20.0100 PHOSPH[…] C, GLYCOSOMAL): 1.04 | fold change vs vehicle control (protein LMJF.21.0720 HY[…], CONSERVED): 1.05 | fold change (protein LMJF.21.1250 ADENYLATE KINASE, PUTATIVE): 0.98 | fold change (protein LMJF.21.1555 HY[…], CONSERVED): 1.01 | fold change (protein LMJF.21.1580 HY[…], UNKNOWN FUNCTION): 1.03 | fold change vs vehicle control (protein LMJF.21.1700 […] 2 SUBUNIT, PUTATIVE): 0.89 | fold change (protein LMJF.22.0230 AMINO ACID PERMEASE, PUTATIVE): 1.2 | fold change vs vehicle control (protein LMJF.22.0730 HYPOTHETICAL PROTEIN, CONSERVED): 1
